Source: article PMC6255974 (Frontiers in Pharmacology, 2018)
Structures can show the parent of a compound that is named as a salt.

What was measured:
[1] = tested on: neuronal rat α9α10 nAChRs; set-up: method as in Ballestero et al., 2005; conditions: ref Ballestero et al., 2005; cited from earlier work
[2] = biological target: human homomeric 5HT3A-receptors; set-up: method as in Thompson and Lummis, 2008; conditions: ref Thompson and Lummis, 2008; cited from earlier work
[3] = biological target: human heteromeric 5HT3AB-receptors; set-up: method as in Thompson and Lummis, 2008; conditions: ref Thompson and Lummis, 2008; cited from earlier work
human GABA(A)-receptors = biological target: human GABA(A)-receptors; set-up: method as in Thompson and Lummis, 2008; conditions: ref Thompson and Lummis, 2008; cited from earlier work
[4] = tested on: recombinant muscle receptor expressed in HEK293 cells; conditions: concentrations up to 30 μM; ref Sieb et al., 1996; cited from earlier work
[5] = set-up: method as in Dieterich et al., 1984; conditions: humans; oral 2 × 260 mg quinine sulfate; ref Dieterich et al., 1984; cited from earlier work
[6] = biological target: T1, human adult muscle nicotinic acetylcholine receptor αβεδ (Homo sapiens, UniProt P02708+P11230+Q04844+Q07001); experiment: ACh-evoked currents at adult muscle nAChR in Xenopus oocytes, two-electrode voltage clamp; type: cell-based; conditions: read-out: IC50 of block of ACh-evoked currents
T1 construct: expressed in transfected cells; host or cells: Xenopus laevis oocytes injected with cRNA (cDNAs in pRBG4, gifts of A. G. Engel and F. Grassi)
Description: The deviations are represented by the standard error of the mean (SEM).

T1 sequence (P02708 21-457): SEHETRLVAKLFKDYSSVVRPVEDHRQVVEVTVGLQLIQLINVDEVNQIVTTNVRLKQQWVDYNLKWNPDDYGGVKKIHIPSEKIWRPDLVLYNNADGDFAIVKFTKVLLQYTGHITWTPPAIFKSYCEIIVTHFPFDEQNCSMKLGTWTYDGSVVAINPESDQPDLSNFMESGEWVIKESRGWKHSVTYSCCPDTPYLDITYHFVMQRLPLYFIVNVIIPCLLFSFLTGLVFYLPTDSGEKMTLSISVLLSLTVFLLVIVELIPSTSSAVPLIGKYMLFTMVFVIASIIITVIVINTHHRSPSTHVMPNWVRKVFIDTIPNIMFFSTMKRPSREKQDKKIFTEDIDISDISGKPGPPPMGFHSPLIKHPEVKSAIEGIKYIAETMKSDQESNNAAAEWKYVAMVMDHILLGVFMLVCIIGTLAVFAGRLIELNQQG
T1 sequence (P11230 24-501): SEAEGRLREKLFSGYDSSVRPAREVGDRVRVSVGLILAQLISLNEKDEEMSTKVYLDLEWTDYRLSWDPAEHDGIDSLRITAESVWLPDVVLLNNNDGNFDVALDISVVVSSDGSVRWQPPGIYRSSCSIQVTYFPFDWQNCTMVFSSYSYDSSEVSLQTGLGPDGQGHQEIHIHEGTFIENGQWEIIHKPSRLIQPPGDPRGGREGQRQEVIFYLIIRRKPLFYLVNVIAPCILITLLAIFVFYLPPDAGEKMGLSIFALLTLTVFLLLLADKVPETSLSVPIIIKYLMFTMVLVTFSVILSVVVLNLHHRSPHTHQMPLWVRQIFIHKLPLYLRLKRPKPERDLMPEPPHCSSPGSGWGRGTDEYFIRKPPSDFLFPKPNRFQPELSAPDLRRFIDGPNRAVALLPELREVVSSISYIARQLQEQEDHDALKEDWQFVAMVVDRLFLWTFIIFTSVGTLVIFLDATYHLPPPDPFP
T1 sequence (Q07001 22-517): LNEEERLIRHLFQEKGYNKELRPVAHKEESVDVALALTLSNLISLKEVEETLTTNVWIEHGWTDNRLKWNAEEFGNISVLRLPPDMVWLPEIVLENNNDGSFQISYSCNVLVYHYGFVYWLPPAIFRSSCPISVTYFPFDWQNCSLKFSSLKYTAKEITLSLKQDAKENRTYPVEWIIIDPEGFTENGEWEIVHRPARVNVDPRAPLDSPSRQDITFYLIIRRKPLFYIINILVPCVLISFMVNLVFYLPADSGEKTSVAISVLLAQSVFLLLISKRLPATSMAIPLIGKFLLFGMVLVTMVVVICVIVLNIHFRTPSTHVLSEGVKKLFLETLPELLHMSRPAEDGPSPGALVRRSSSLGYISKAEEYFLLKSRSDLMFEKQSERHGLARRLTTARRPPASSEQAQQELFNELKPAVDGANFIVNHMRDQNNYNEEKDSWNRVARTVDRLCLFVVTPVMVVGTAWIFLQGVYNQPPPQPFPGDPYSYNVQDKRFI
T1 sequence (Q04844 21-493): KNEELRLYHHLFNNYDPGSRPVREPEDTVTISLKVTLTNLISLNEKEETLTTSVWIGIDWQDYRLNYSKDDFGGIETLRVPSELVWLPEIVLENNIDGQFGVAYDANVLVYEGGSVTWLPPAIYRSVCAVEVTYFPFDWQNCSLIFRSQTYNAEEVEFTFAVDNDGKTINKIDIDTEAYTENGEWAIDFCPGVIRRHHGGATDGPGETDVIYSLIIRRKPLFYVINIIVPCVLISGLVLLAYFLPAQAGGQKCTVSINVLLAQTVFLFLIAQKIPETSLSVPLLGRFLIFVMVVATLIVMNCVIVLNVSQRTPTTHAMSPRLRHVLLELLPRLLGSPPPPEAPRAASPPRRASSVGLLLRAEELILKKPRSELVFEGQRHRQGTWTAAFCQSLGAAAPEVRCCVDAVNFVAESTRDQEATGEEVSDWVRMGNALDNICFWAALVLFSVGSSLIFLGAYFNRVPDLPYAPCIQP

For `C=C[C@H]1C[N@@]2CC[C@H]1C[C@H]2[C@H](O)c1ccnc2ccc(OC)cc12` [quinine], which IC50 [1] is on record?
Its IC50 is roughly 1 µM.

What about the IC50 [2] of the same molecule?
Its IC50 is roughly 1 µM.

What about the IC50 [3] of the same molecule?
Its IC50 is roughly 16 µM.

What about the IC50 (human GABA(A)-receptors) of the same molecule?
Its IC50 is roughly 1600 µM.

What about the “Inhibition of the binding of α-bungarotoxin” value [4] of the same molecule?
Its value is “could not inhibit”.

Which “Time of peak plasma concentration after intake” value [5] does the source give for `C=C[C@H]1C[N@@]2CC[C@H]1C[C@H]2[C@H](O)c1ccnc2ccc(OC)cc12` [quinine sulfate] here?
Its value is “about 2 h”.

With `CCN(CC)CCCC(C)Nc1ccnc2cc(Cl)ccc12` (stereo not shown) [chloroquine] as the molecule, how does the IC50 [6] read?
The IC50 was 2.22 µM.
